Values after ≈ are worked out from the molar mass of the structure shown.
Experiments:
[1] = Solubility in 0.01 M sodium phosphate buffer at pH = 7.4; type: physicochemical
Neutrophil elastase = molecular target: T1, Neutrophil elastase (Homo sapiens, UniProt P08246); assay: Inhibition of Human Neutrophil Elastase-catalyzed hydrolysis of the synthetic substrate MeO-Suc-Ala-Ala-Pro-Val-p- nitroanilide.
T1 sequence (P08246 whole entry): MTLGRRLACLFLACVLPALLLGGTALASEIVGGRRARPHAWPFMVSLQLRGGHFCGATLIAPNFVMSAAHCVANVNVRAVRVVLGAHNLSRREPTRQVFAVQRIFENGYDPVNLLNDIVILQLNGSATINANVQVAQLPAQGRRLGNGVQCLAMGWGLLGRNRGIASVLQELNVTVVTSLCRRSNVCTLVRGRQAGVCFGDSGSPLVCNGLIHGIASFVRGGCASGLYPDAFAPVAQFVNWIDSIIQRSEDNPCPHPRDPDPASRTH

| Compound | solubility [1] [µg/mL] | Ki (Neutrophil elastase) [nM] |
| --- | --- | --- |
| CC(C)C(NC(=O)Cn1ccc2c(=O)n([C@H]3C[C@@H]3c3ccccc3)c(=O)[nH]c2c1=O)C(=O)C(F)(F)F (some centres undefined) | – | 230 |
| CC(C)C(NC(=O)Cn1ccc2c(=O)n(CCN3CCOCC3)c(=O)[nH]c2c1=O)C(=O)C(F)(F)F (centres undefined) | – | 330 |
| CC(C)[C@@H](NC(=O)Cn1ccc2c(=O)n(CC(=O)OC(C)(C)C)c(=O)[nH]c2c1=O)C(=O)C(F)(F)F | – | 290 |
| CC(C)C(NC(=O)Cn1ccc2c(=O)n(C(C)(C)Cc3ccccc3)c(=O)[nH]c2c1=O)C(=O)C(F)(F)F (centres undefined) | – | 16 |
| COc1ccc(Cn2c(=O)[nH]c3c(=O)n(CC(=O)NC(C(=O)C(F)(F)F)C(C)C)ccc3c2=O)cc1 (centres undefined) | – | 100 |
| COC(=O)Cn1c(=O)[nH]c2c(=O)n(CC(=O)N[C@@H](C(=O)C(F)(F)F)C(C)C)ccc2c1=O | – | 490 |
| CC(C)C(NC(=O)Cn1ccc2c(=O)n(Cc3cccc4ccccc34)c(=O)[nH]c2c1=O)C(=O)C(F)(F)F (centres undefined) | – | 26 |
| CC(C)C(NC(=O)Cn1cccc(NC(=O)OCc2ccccc2)c1=O)C(=O)C(F)(F)F (centres undefined) | 110 (≈ 243 µM) | – |
| CC(C)C(NC(=O)Cn1c(-c2ccccc2)cc2c(O)nc(O)nc2c1=O)C(=O)C(F)(F)F (centres undefined) | 220 (≈ 474 µM) | 15 |
| CC(C)C(NC(=O)Cn1ccc2c(=O)n(C)c(=O)[nH]c2c1=O)C(=O)C(F)(F)F (centres undefined) | – | 620 |
| CC(C)[C@@H](NC(=O)Cn1ccc2c(=O)n(CC(=O)O)c(=O)[nH]c2c1=O)C(=O)C(F)(F)F | – | 690 |
| CC(=O)Cn1c(=O)[nH]c2c(=O)n(CC(=O)NC(C(=O)C(F)(F)F)C(C)C)ccc2c1=O (centres undefined) | – | 310 |
| CC(C)C(NC(=O)Cn1ccc2c(=O)[nH]c(=O)[nH]c2c1=O)C(=O)C(F)(F)F (centres undefined) | > 5000 | 910 |
| CC(C)C(NC(=O)Cn1ccc2c(=O)n(-c3ccccc3)c(=O)[nH]c2c1=O)C(=O)C(F)(F)F (centres undefined) | – | 830 |

Results, then the molecule that gave them:

| solubility [1] [µg/mL] | Ki (Neutrophil elastase) [nM] | Compound |
| --- | --- | --- |
| 100 (≈ 187 µM) | 22 | CNC(=O)Cn1c(=O)[nH]c2c(=O)n(CC(=O)NC(C(=O)C(F)(F)F)C(C)C)c(-c3ccccc3)cc2c1=O (centres undefined) |
| – | 21 | CC(C)C(NC(=O)Cn1ccc2c(=O)n(CCc3cccc4ccccc34)c(=O)[nH]c2c1=O)C(=O)C(F)(F)F (centres undefined) |
| 300 (≈ 519 µM) | 8.4 | CC(C)C(NC(=O)Cn1c(-c2ccccc2)cc2c(=O)n(CCN3CCOCC3)c(=O)[nH]c2c1=O)C(=O)C(F)(F)F (centres undefined) |
| 44 (≈ 92 µM) | 10 | CC(C)C(NC(=O)Cn1c(-c2ccccc2)cc2c(=O)n(C)c(=O)[nH]c2c1=O)C(=O)C(F)(F)F (centres undefined) |
| 8 (≈ 14.9 µM) | 7.5 | CCOCCn1c(=O)[nH]c2c(=O)n(CC(=O)NC(C(=O)C(F)(F)F)C(C)C)c(-c3ccccc3)cc2c1=O (centres undefined) |
| – | 42 | CC(C)C(NC(=O)Cn1ccc2c(=O)n(CCc3ccccc3)c(=O)[nH]c2c1=O)C(=O)C(F)(F)F (centres undefined) |
| 320 (≈ 631 µM) | 19 | CC(C)C(NC(=O)Cn1c(-c2ccccc2)cc2c(=O)n(N(C)C)c(=O)[nH]c2c1=O)C(=O)C(F)(F)F (centres undefined) |
| 420 (≈ 760 µM) | 12 | COC(Cn1c(=O)[nH]c2c(=O)n(CC(=O)NC(C(=O)C(F)(F)F)C(C)C)c(-c3ccccc3)cc2c1=O)OC (centres undefined) |
| 230 (≈ 393 µM) | 5.7 | COc1ccc(Cn2c(=O)[nH]c3c(=O)n(CC(=O)NC(C(=O)C(F)(F)F)C(C)C)c(-c4ccccc4)cc3c2=O)cc1 (centres undefined) |
| 130 (≈ 249 µM) | 15 | CC(C)[C@@H](NC(=O)Cn1c(-c2ccccc2)cc2c(=O)n(CC(N)=O)c(=O)[nH]c2c1=O)C(=O)C(F)(F)F |
| – | 2.8 | CC(C)[C@@H](NC(=O)Cn1c(-c2ccccc2)cc2c(=O)n(CC(=O)OCc3ccccc3)c(=O)[nH]c2c1=O)C(=O)C(F)(F)F |
| 730 (≈ 1530 µM) | 160 | CC(C)C(NC(=O)Cn1ccc2c(=O)n(Cc3ccccc3)c(=O)[nH]c2c1=O)C(=O)C(F)(F)F (centres undefined) |
| – | 74 | CC(C)C(NC(=O)Cn1ccc2c(=O)n(CC(=O)c3ccccc3)c(=O)[nH]c2c1=O)C(=O)C(F)(F)F (centres undefined) |
| – | 9.9 | CC(C)C(NC(=O)Cn1c(-c2ccccc2)cc2c(=O)n(CC(=O)NCc3ccccc3)c(=O)[nH]c2c1=O)C(=O)C(F)(F)F (centres undefined) |

Reference: ChEMBL document CHEMBL1129513, “Nonpeptidic inhibitors of human neutrophil elastase. 7. Design, synthesis, and in vitro activity of a series of pyridopyrimidine trifluoromethyl ketones” (J Med Chem, 1996)
